From ChEMBL document CHEMBL3885861, “Open TG-GATES”

Organism: Rattus norvegicus
Test: Open TG-GATES - Regimen: Single
Format: toxicity, organism-based, Sprague-Dawley
Design: regimen Single, gender Male, age 6 weeks
Settings: in vivo, iv, 20 mg/kg, route intravenous injection, dose level Middle; for APTT / Bas / Eos / Fbg / Hb / Ht / Lym / MCH / MCHC / MCV / Mono / Neu / PT / Plat / RBC / Ret / WBC: tissue Blood; for KIDNEY_L / KIDNEY_R / KIDNEY_TOTAL: tissue Kidney; for LIVER: tissue Liver; for A/G / ALP / ALT / AST / BUN / CRE / Ca / Cl / DBIL / GLC / IP / K / LDH / Na / PL / RALB / TBIL / TC / TG / TP / gamma-GTP: tissue Plasma

## NCCBr [BROMOETHANAMINE]
3 h
  TERMINAL_BW: 213.1 g
  APTT: 23.3 s
  Bas: 0%
  Eos: 0.8%
  Fbg: 304 mg/dL
  Hb: 13.6 g/dL
  Ht: 39.3%
  Lym: 77.8%
  MCH: 21.5 pg
  MCHC: 34.7%
  MCV: 61.9 fL
  Mono: 2.2%
  Neu: 18.8%
  PT: 16.2 s
  Plat: 141.3 x10_4/uL
  RBC: 635 x10_4/ul
  Ret: 5.8%
  WBC: 60.9 x10_2/uL
  KIDNEY_L: 0.9 g
  KIDNEY_R: 0.9 g
  KIDNEY_TOTAL: 1.9 g
  LIVER: 9.4 g
  A/G: 1.2
  ALP: 1554.2 IU/L
  ALT: 41.2 IU/L
  AST: 67.2 IU/L
  BUN: 11.6 mg/dL
  CRE: 0.1 mg/dL
  Ca: 10.8 mg/dL
  Cl: 105 meq/L
  DBIL: 0 mg/dL
  GLC: 189.8 mg/dL
  IP: 9.8 mg/dL
  K: 3.8 meq/L
  LDH: 210 IU/L
  Na: 143.2 meq/L
  PL: 130.8 mg/dL
  RALB: 3.1 g/dL
  TBIL: 0.014 mg/dL
  TC: 79.4 mg/dL
  TG: 50.2 mg/dL
  TP: 5.7 g/dL
  gamma-GTP: 1.6 IU/L
6 h
  TERMINAL_BW: 214.7 g
  APTT: 23.7 s
  Bas: 0%
  Eos: 1%
  Fbg: 308.8 mg/dL
  Hb: 13.5 g/dL
  Ht: 39.4%
  Lym: 74.4%
  MCH: 21.6 pg
  MCHC: 34.3%
  MCV: 63 fL
  Mono: 2.2%
  Neu: 21.4%
  PT: 16.1 s
  Plat: 126.9 x10_4/uL
  RBC: 624.6 x10_4/ul
  Ret: 6.1%
  WBC: 83.3 x10_2/uL
  KIDNEY_L: 1 g
  KIDNEY_R: 1 g
  KIDNEY_TOTAL: 2 g
  LIVER: 8.8 g
  A/G: 1.2
  ALP: 1286 IU/L
  ALT: 34.2 IU/L
  AST: 68.6 IU/L
  BUN: 9.8 mg/dL
  CRE: 0.2 mg/dL
  Ca: 10.5 mg/dL
  Cl: 105.8 meq/L
  DBIL: 0 mg/dL
  GLC: 183.4 mg/dL
  IP: 9.9 mg/dL
  K: 4.2 meq/L
  LDH: 183.2 IU/L
  Na: 142 meq/L
  PL: 117.2 mg/dL
  RALB: 2.9 g/dL
  TBIL: 0.026 mg/dL
  TC: 74.4 mg/dL
  TG: 28.8 mg/dL
  TP: 5.5 g/dL
  gamma-GTP: 1.6 IU/L
9 h
  TERMINAL_BW: 205.7 g
  APTT: 23.8 s
  Bas: 0%
  Eos: 0.6%
  Fbg: 343 mg/dL
  Hb: 13.9 g/dL
  Ht: 40%
  Lym: 74.4%
  MCH: 21 pg
  MCHC: 34.7%
  MCV: 60.5 fL
  Mono: 3%
  Neu: 21.2%
  PT: 15.9 s
  Plat: 121.7 x10_4/uL
  RBC: 662.2 x10_4/ul
  Ret: 5.5%
  WBC: 69.4 x10_2/uL
  KIDNEY_L: 1 g
  KIDNEY_R: 1 g
  KIDNEY_TOTAL: 2 g
  LIVER: 8.4 g
  A/G: 1.1
  ALP: 1380.4 IU/L
  ALT: 32.6 IU/L
  AST: 63 IU/L
  BUN: 12.2 mg/dL
  CRE: 0.2 mg/dL
  Ca: 10.6 mg/dL
  Cl: 105.4 meq/L
  DBIL: 0 mg/dL
  GLC: 187 mg/dL
  IP: 9.4 mg/dL
  K: 3.7 meq/L
  LDH: 170.6 IU/L
  Na: 142.8 meq/L
  PL: 139 mg/dL
  RALB: 3 g/dL
  TBIL: 0.018 mg/dL
  TC: 80.2 mg/dL
  TG: 66.2 mg/dL
  TP: 5.8 g/dL
  gamma-GTP: 1.2 IU/L
24 h
  TERMINAL_BW: 213.8 g
  APTT: 22.4 s
  Bas: 0%
  Eos: 0.8%
  Fbg: 384.6 mg/dL
  Hb: 13.9 g/dL
  Ht: 40.7%
  Lym: 80.8%
  MCH: 21.1 pg
  MCHC: 34%
  MCV: 61.9 fL
  Mono: 2.6%
  Neu: 15%
  PT: 16.4 s
  Plat: 123.2 x10_4/uL
  RBC: 659.2 x10_4/ul
  Ret: 4.9%
  WBC: 85.8 x10_2/uL
  KIDNEY_L: 1 g
  KIDNEY_R: 1 g
  KIDNEY_TOTAL: 2 g
  LIVER: 9.5 g
  A/G: 1.1
  ALP: 1544 IU/L
  ALT: 41.8 IU/L
  AST: 69.8 IU/L
  BUN: 25.6 mg/dL
  CRE: 0.2 mg/dL
  Ca: 11 mg/dL
  Cl: 105.6 meq/L
  DBIL: 0.002 mg/dL
  GLC: 190.4 mg/dL
  IP: 6.7 mg/dL
  K: 4.2 meq/L
  LDH: 200.8 IU/L
  Na: 142.8 meq/L
  PL: 152.2 mg/dL
  RALB: 3 g/dL
  TBIL: 0.012 mg/dL
  TC: 89.6 mg/dL
  TG: 89 mg/dL
  TP: 5.7 g/dL
  gamma-GTP: 2.2 IU/L
